Values of other authors in patent US20230121528A1, “SALMONELLA-BASED DNA VACCINES IN COMBINATION WITH AN ANTIBIOTIC” (VAXIMM AG, priority 2020, published 2023).

System: glioblastoma
Conditions: glioblastoma patients

Q: Which survival benefit does the source give for “avastin: monoclonal antibody avastin targeting VEGF” here?
A: only showed benefits in progression free survival, but not in overall survival
